Experimental data as given in patent publication US20220137028A1, “In Vitro Assays as Indicator of Local Tolerance” (Lonza Ltd, priority 2019, published 2022).

How the values were obtained:
[1] = system: human heparinized whole blood (erythrocytes); test: In vitro hemolysis test with co-solvents (study procedure, Drabkin's solution, absorbance 540 nm); details: for max. well tolerated co-solvent concent: co-solvent diluted with NaCl 0.9%, intersection of fitted sigmoidal curve with 5% hemolysis line, 10 min at 37° C.; for hemolysis value: human, 10 min, 10 % v/v
Experimental: A test was developed to determine the hemolytic activity of a pharmaceutical formulation. The test utilized fresh anticoagulated human blood. In general, the test was performed by diluting the pharmaceutical product with fresh saline, then mixing with an aliquot of fresh human whole blood. After incubating at 37° C., the test solutions were centrifuged, and the concentration of hemoglobin was measured in the supernatant using spectroscopic techniques.
To determine the 100% hemolysis value, equal volumes of […] and blood were mixed, centrifuged, and mixed again. 30 μl was transferred to a plate, and 170 μl of Drabkin's reagent was added. The 100% hemolysis value was indicated as Value A.
To determine the 0% hemolysis value, equal volumes of saline and blood were mixed. The 0% hemolysis value is indicated as Value B.
The dilutions were performed in glass or plastic tubes with a diameter of approximately 12 mm and a length of approximately 100 mm.
400 μl of whole blood was added to each tube. The components were carefully homogenized. The tubes were incubated for 10 minutes at 37° C., homogenized again and then centrifuged for 10 minutes at 2500×g. The contents of the tube were mixed for Value A (100% hemolysis) and then transferred 3 times 30 μl of each tube of the supernatant to a 96-well plate (flat bottom) and 170 μl of Drabkin's solution was added to each well containing solution. The plate was read in a plate reader at wavelength 540 nm.
For evaluation of the test results from the plate reader reading at wavelength 540 nm, the mean values of the triplicates were calculated. The percent hemolytic activity was determined according to the following formula:
wherein: % HA=percent hemolytic activity; A=Value for 100% HA; B=Value for 0% HA; C=Value for tested solution.
Dilutions of the co-solvents were prepared in tubes. An equal volume of human heparinized whole blood was added and homogenized. The test co-solvents were diluted in sterile, pyrogen-free water and sterile, pyrogen-free saline.
The following equation was used to obtain a curve fitting of the hemolysis data: […]
The maximal well tolerated co-solvent concentration was obtained by calculating the intersection of the sigmoidal curves with the horizontal line at hemolysis, i.e., 5%.

[2] = Tonicity of 10% co-solvent solutions; type: physicochemical; details: solutions with 10% co-solvent

Row | Molecule | flocculation in hemolysis test [1] | hemolysis at the lowest tested co-solvent concentration (in words) [1] | max. well tolerated co-solvent concent [1] [%] | hemolysis value [1] [%] | tonicity of the solution [2] | co-solvent concentration at which significant (>10%) hemolysis is induced [1] | effect of switch from water for injection to saline as diluent on hemolytic behavior [1]
1 | CCO [Ethanol] | significant flocculation | high hemolysis | 29 | ~100 | clearly hypertonic | – | –
2 | CC(O)CO (stereo not drawn) [PG, Propylene glycol] | – | high hemolysis | 48 | ~100 | clearly hypertonic | – | –
3 | Polyethylene glycol 300 [PEG 300] | – | – | – | – | isotonic | 60-70% | did not drastically modify the hemolytic behavior
4 | Polyethylene glycol 400 [PEG 400] | – | – | – | – | close to isotonicity | 50-60% | did not drastically modify the hemolytic behavior
